Measured values from article PMC3665846, “Evolution of a Potential Hormone Antagonist following Gene Splicing during Primate Evolution” (PLoS ONE, 2013).
One block for each substance: values may come before it. No end group written: not given here.

Columns and labels:
SK-N-MC cells = experiment: Ewing tumor cell growth, SK-N-MC, crystal violet staining; assay type: cell-based, human; conditions: CCK-8 0.1 uM, 6 days; for suppression of CCK-stimulated growth, SK-N-MC: serum-free, CCKsv 30 min pre-treatment, at least 3 independent experiments
Experimental: (§1) SK-N-MC and SK-PN-DW cells (1×10^5) were plated in 12-well plates and allowed to attach for 24–36 h. Cells were then cultured in serum-free media with 0.1 uM of the CCK-8 peptide with or without the CCKsv peptide. Fresh media containing peptides were replaced every two days. […] Cell growth was determined by crystal violet staining.

CCKA receptor [1] = experiment: CCKA receptor luciferase reporter assay, antagonism of CCK-8; assay type: cell-based; conditions: CCKsv 0.1 uM or 1 uM, 30 min pre-incubation
Experimental: (§2) HEK293T cells seeded in 24-well plates were co-transfected by various luciferase reporters (30 ng), the pSV-β-Gal plasmid (3 ng), and the CCKA or CCKB receptor (30 ng). After 1 day, cells were treated in serum-free media for another 18 h with increasing doses of the CCK-8 or CCKsv peptide. For the estimation of antagonistic activities, cells were pre-incubated (30 min.) with the CCKsv peptide before treatment with CCK8 for 18 h. Luciferase activities were determined using luciferase assay kits (Promega) and normalized using β-galactosidase activities. All experiments were performed at least three times in triplicates. Data were analyzed using Graphpad Prism 5.0.

CCKB receptor [2] = experiment: CCKB receptor luciferase reporter assay, antagonism of CCK-8; assay type: cell-based
Experimental: as §2

SK-PN-DW cells = experiment: Ewing tumor cell growth, SK-PN-DW, crystal violet staining; assay type: cell-based; conditions: CCK-8 0.1 uM, 6 days; for suppression of CCK-stimulated growth, SK-PN-DW: serum-free, CCKsv 30 min pre-treatment, at least 3 independent experiments
Experimental: as §1

CCKA receptor [3] = experiment: CCKA receptor luciferase reporter assay, agonism; assay type: cell-based; conditions: CRE-, SRE-, NFAT-, 18 h
Experimental: as §2

LGR7 = experiment: relaxin-stimulated CRE-luciferase activity in LGR7-expressing cells (specificity control); assay type: cell-based; conditions: CCKsv 0.1 uM or 1 uM, co-treatment with relaxin, Fig. S6
CCKB receptor [4] = experiment: CCKB receptor luciferase reporter assay, agonism; assay type: cell-based; conditions: 18 h
Experimental: as §2

[5] = system: release of pancreatic enzymes and the contraction of the gallbladder; conditions: ref [10]–[12]; cited from earlier work
Excerpt: Alternative splicing allows the generation of various gene products with different functions from a single gene and is a major mechanism of generating protein diversity in eukaryotes [1]–[5]. At least half, or more, of mammalian genes can be alternatively spliced, [2]. Thus, alternative splicing emerges as a major mechanism of generating protein diversity and splicing of coding regions in peptide hormone genes often results in additional protein domains. Calcitonin and calcitonin-related polypeptide represent the classical example of novel hormone evolution from the same gene ...

[6] = system: various cancer cell lines; conditions: ref [23]–[27]; cited from earlier work
Experimental: Because treatment with a CCK antagonist inhibits proliferation of Ewing tumor cells, CCK antagonist could represent a new therapeutic approach in the management of Ewing's tumor patients. To further confirm the potential antagonist function of CCKsv, we checked if CCKsv could inhibit Ewing tumor cell growth stimulated by CCK. Two Ewing tumor cell lines (SK-N-MC and SK-PN-DW) were cultured with the CCK-8 peptide (0.1 uM) in the presence or absenc ...

inhibition of CCK-8-stimulated CRE luciferase activity, CCKA (CCKA receptor [1]; Fig. 3A, HEK293T, increasing doses of CCK-8, 18 h): inhibited | inhibition of CCK-8-stimulated SRF luciferase activity, CCKA (CCKA receptor [1]; Fig. 3B, HEK293T, increasing doses of CCK-8, 18 h): inhibited | suppression of CCK-8-stimulated CRE luciferase activity (CCKB receptor [2]; Fig. 3C, HEK293T + CCKB, CRE reporter, 1 uM CCKsv (30 min pre-incubation), CCK-8 30 nM, 18 h): ~60% | inhibition of CCK-8-stimulated CRE luciferase activity, CCKB (CCKB receptor [2]; Fig. 3C, HEK293T, CCKsv 0.1 uM or 1 uM, 30 min pre-incubation, increasing doses of CCK-8, 18 h): inhibited | suppression of CCK-8-stimulated SRF luciferase activity (CCKB receptor [2]; Fig. 3D, HEK293T + CCKB, SRF reporter, 1 uM CCKsv (30 min pre-incubation), CCK-8 30 nM, 18 h): ~60% | inhibition of CCK-8-stimulated SRF luciferase activity, CCKB (CCKB receptor [2]; Fig. 3D, HEK293T, CCKsv 0.1 uM or 1 uM, 30 min pre-incubation, increasing doses of CCK-8, 18 h): inhibited | inhibition of CCK-8-stimulated SRE luciferase activity, CCKB (CCKB receptor [2]; Fig. 3E, HEK293T, CCKsv 0.1 uM or 1 uM, 30 min pre-incubation, increasing doses of CCK-8, 18 h): inhibited
Substance: GKNAASPSLTSALVPRLPMLTLFSSASLMGMTSL-amidated (GKNAASPSLTSALVPRLPMLTLFSSASLMGMTSL-NH2) [CCKsv, splicing variant of human CCK; predicted mature peptide chemically synthesized, C-terminally amidated]
suppression of CCK-stimulated growth, SK-N-MC (SK-N-MC cells; 0.1 uM CCKsv, Fig. 4A): 22% | suppression of CCK-stimulated growth, SK-N-MC (SK-N-MC cells; 1 uM CCKsv, Fig. 4A): 38% | effect of CCKsv on CCK-stimulated growth, SK-N-MC (SK-N-MC cells; CCKsv 0.1 uM or 1 uM): dose-dependently reduced CCK-stimulated growth | suppression of CCK8 actions by CCKsv pretreatment, CCKA (CCKA receptor [1]; HEK293T + CCKA, then CCK-8 (various doses) 18 h, luciferase): dose-dependent suppression of CCK8 actions | suppression of CCK8 actions by CCKsv pretreatment, CCKB (CCKB receptor [2]; HEK293T + CCKB, CCKsv 0.1 uM or 1 uM, 30 min pre-incubation, then CCK-8 (various doses) 18 h, luciferase): dose-dependent suppression of CCK8 actions | suppression of CCK-stimulated growth, SK-PN-DW (SK-PN-DW cells; 0.1 uM CCKsv, Fig. 4B): 18% | suppression of CCK-stimulated growth, SK-PN-DW (SK-PN-DW cells; 1 uM CCKsv, Fig. 4B): 31% | effect of CCKsv on CCK-stimulated growth, SK-PN-DW (SK-PN-DW cells; CCKsv 0.1 uM or 1 uM): dose-dependently reduced CCK-stimulated growth | stimulation of G protein pathways by CCKsv via CCKA (agonism) (CCKA receptor [3]; HEK293T + CCKA, SRF-RE-luciferase (Gs, Gi, Gq, G12), Fig. S5): not capable of stimulating different G proteins (Gs, Gi, Gq, and G12) | effect on luciferase activity stimulated by relaxin (LGR7): did not alter relaxin signaling | stimulation of G protein pathways by CCKsv via CCKB (agonism) (CCKB receptor [4]; HEK293T + CCKB, CRE-, SRE-, NFAT-, SRF-RE-luciferase (Gs, Gi, Gq, G12), Fig. S5): not capable of stimulating different G proteins (Gs, Gi, Gq, and G12)

Substance: CCK-8: CCK-8 peptide purchased from Phoenix Pharmaceuticals Inc. [reference compound]
Ewing tumor cell growth with CCK-8, SK-N-MC (SK-N-MC cells; serum-free media, replaced every two days, Fig. 4A): growth stimulated by CCK-8 peptide | Ewing tumor cell growth with CCK-8, SK-PN-DW (SK-PN-DW cells; serum-free media, replaced every two days, Fig. 4B): growth stimulated by CCK-8 peptide | stimulation of luciferase reporters by CCK-8 via CCKA (CCKA receptor [3]; HEK293T cells co-transfected with reporter, pSV-β-Gal and CCKA, serum-free, SRF-RE reporters screened, normalized to β-galactosidase, at least three times in triplicates): stimulated CRE- and SRF-RE reporters via CCKA | stimulation of luciferase reporters by CCK-8 via CCKB (CCKB receptor [4]; HEK293T cells co-transfected with reporter, pSV-β-Gal and CCKB, serum-free, CRE-, SRE-, NFAT-, SRF-RE reporters screened, normalized to β-galactosidase, at least three times in triplicates): stimulation of CRE-, SRE- and SRF-RE reporters | responsiveness to CCK-8 of cells with CRE reporter and CCKB receptor (CCKB receptor [4]; HEK293T, CRE-luciferase, CCKB, compared with other reporter/receptor combinations (Fig. 3C)): most responsive to CCK-8 peptide stimulation

Substance: Cholecystokinin [CCK]
release of pancreatic enzymes and gallbladder contraction [5]: induce the release of pancreatic enzymes and the contraction of the gallbladder | cell proliferation in cancer cell lines [6]: induces cell proliferation
